Reference: publication PMC9727064, “Performance assessment and economic analysis of a human Liver-Chip for predictive toxicology” (Communications Medicine, 2022)
Entries after “also recorded” stand apart in the source; their conditions may differ.

Key:
[1] = test system: human Liver-Chip (hepatocyte layer); experiment: Liver-Chip immunofluorescence imaging (caspase 3/7, TMRM, AdipoRed/LipidTOX); format: cell-based; conditions: for Immunofluorescence staining result in words: caspase 3/7 (apoptosis) or TMRM (mitotoxicity), 7 days; for Immunofluorescent findings, donor one (Supplementary Figure 3) / Immunofluorescent findings, donor three (Supplementary Figure 3) / Immunofluorescent findings, donor two (Supplementary Figure 3): day 7 post-drug administration, hepatocyte layer, top channel
Method: Chips were detached from pods and washed once with PBS. […] Afterwards, chips were washed with PBS and stored at 4 °C until staining. Following fixation, chips corresponding to low, medium, and high concentrations from each group were cut in half with a razor blade perpendicular to the co-culture channels. One half was used in the following staining protocol, while the other half was stored for future staining. All stains and washes utilized the bubble method, in which a small amount of air is flowed through the channel prior to bulk wash media to prevent a liquid-liquid dilution of the staining solution. […] Following 15 minutes of incubation at room temperature, each channel was washed with 200 µL of PBS (alternating channels, 2× for top and 3× for bottom). As an alternative lipid accumulation marker, 100 µL of HCS LipidTOX Deep Red (ThermoFisher, H34477) was diluted 1:1000 v/v in PBS with NucBlue counterstain and added to the top channel. After a 30 min incubation at room temperature, the chips were again allowed to reach room temperature before the channels were alternatively washed with 200 µL of PBS, the bottom channel undergoing three washes and the top channel undergoing two. Chips were then imaged using the Opera Phenix. Following lipid and DAPI staining and imaging, chips were stained with a […] (MRP2) antibody to visualize the bile canalicular structures characteristic of healthy Liver-Chips. […] Then, each channel was washed with 200 µL of PBS (alternating channels, 2× for top and 3× for bottom). […] Next, primary antibody Mouse anti-MRP2 (Abcam, ab3373) was prepared 1:100 in the original blocking buffer, diluted 1:4 in PBS. 100 µL of solution was added to each channel, and chips were stored overnight at 4 °C. The following day, each channel was washed with 200 µL of PBS (alternating channels, 2× for top and 3× for bottom). […] 100 µL of solution was added to each channel and chips incubated at room temperature, protected from light, for two hours. Then, each channel was washed with 200 µL of PBS (alternating channels, 2× for top and 3× for bottom). Chips were imaged immediately or stored at 4 °C until ready for imaging on the Opera Phenix. Chip replicates designated for live cell imaging were washed with PBS utilizing the bubble method. Chips were then cut in half perpendicular to the co-culture channels. […] The bottom chips halves were stained with NucBlue (Thermo) to visualize nuclei and Tetramethylrhodamine, methyl ester (TMRM) (ThermoFisher, I34361) to visualize active mitochondria. This staining panel was prepared in PBS with 5% FBS, with NucBlue at 2 drops per mL and TMRM at a 1:1000 ratio in original blocking buffer, diluted 1:4 in PBS. Chips were incubated in the dark at 37 °C for 30 min, and then each channel was washed with 200 µL of PBS (alternating channels, 2× for top and 3× for bottom). The chips were kept at 37 °C, protected from light, until ready for imaging with the Opera Phenix. Fluorescent confocal image acquisition was performed using the Opera Phenix High-Content Screening System and Harmony 4.9 Imaging and Analysis Software (PerkinElmer). Before acquisition, the Phenix internal environment was set to 37 °C and 5% CO2. […] Whole chips were placed directly into each slot, while top and bottom half chips were matched and combined in one chip slot. Chips were aligned flush with the adapter and one another. Any bubbles identified from visual inspection were washed out with PBS. Once ready, the stained chips were covered with transparent plate film to seal channel ports and loaded into the Phenix. […] Z-stacks were generated with 3.6 µm between slices for 28–32 planes so that the epithelium was located around the center of the stack. […] Raw images from fixed and live imaging were exported in TIFF format from the Harmony software. Using scripts written for FIJI (ImageJ), TIFFs across three color channels and multiple z-stacks were compiled into composite images for each field of view in each chip. […]

[2] = test system: human Liver-Chip (Kupffer cell activation); experiment: IL-6 and TNF-alpha in Liver-Chip effluent (MSD U-PLEX); conditions: effluent of Liver-Chips from three donors, no inflammatory stimulant
Method: Samples were added to plates manually at a 1:2 dilution. Plates were read for cytokine release on the MESO QuickPlex SQ 120 (Meso Scale Discoveries).

[3] = test system: human Liver-Chip (primary human hepatocytes); experiment: Liver-Chip alanine transaminase (ALT) release in top channel effluent (ELISA); format: cell-based
Description: Cycles 1 to 4 tested 6–8 concentrations in duplicate for each of 10–13 drugs. To determine which sampling strategy was optimal for cycles 1 to 4 (16 doses × 1 replicate, 8 × 2, 5 × 3, or 4 × 4), we generated three different “dose-response” synthetic datasets, each distorted by different noise levels (low, medium, or high). For each of these datasets, we performed curve-fitting analyses and calculated the Root Mean Square Error between the “true” and estimated IC50 parameter. […] Some drugs were also repeated across cycles (on different donors or at different concentrations) to ensure experimental robustness. However, to replicate a more typical study design likely to be carried out by scientists in the pharmaceutical industry, we created cycle 5 with 6 drugs, where each was tested in 4 concentrations in triplicate. For each cycle, chips were dosed with drug over 8 days (referred to as Day 0 through Day 7).
The drug dosing concentrations were determined from the unbound human Cmax of each drug. First, the expected fraction of drug unbound in media with 2% FBS was extrapolated from plasma binding data for each drug. Dosing concentrations were then back calculated such that the unbound fraction in media would reflect relevant multiples of unbound human Cmax (Supplementary Data 1).
On the first dosing day (Day 0), all chips were imaged using the ECHO microscope. Five hundred microliters of effluent was collected from all four reservoirs of the pod and placed in a labeled 96-well plate. After collection, all the remaining media was carefully aspirated before dosing with 3.8 mL of corresponding dosing solution. Dosing occurred on study days 0, 2, and 4 for chips flowing at 30 µL/h, and on days 0, 1, 2, 3, 4, 5, and 6 for chips flowing at 150 µL/h. Effluent collection occurred on days 1, 3, and 7.
Top channel outlet effluents were analyzed to quantify albumin and alanine transaminase (ALT) levels on days 1, 3, and 7 using sandwich ELISA kits (Abcam, Albumin ab179887, ALT ab234578) according to vendor-provided protocols. Frozen (−80 °C) effluent samples were thawed overnight at 4 °C prior to assay. The Hamilton Vantage liquid handling platform was used to manage effluent dilutions (1:500 for albumin, neat for ALT), preparation of standard curves, and addition of antibody cocktail. Absorbance at 450 nm was measured using the SynergyNeo Microplate Reader (BioTek).

[4] = lowest concentration causing an increase in ALT protein
[5] = expanded drug list, lowest concentration causing an increase in ALT release

SMILES | Immunofluorescence staining result in words [1] | Immunofluorescent findings, donor one (Supplementary Figure 3) [1] | Immunofluorescent findings, donor three (Supplementary Figure 3) [1] | IF imaging Donor 1 ([1]; matched pair analysis) | IF imaging Donor 2 ([1]; matched pair analysis) | IF imaging Donor 3 ([1]; matched pair analysis) | IL-6 and TNFα cytokine production after treatment [2] | ALT_levels ([3]; Concentration_Day3 = 45, one line per replicate chip) | ALT Donor 1 [3, 4] | ALT Donor 2 [3, 4] | ALT Donor 3 [3, 4] | IF imaging Donor 1 ([1]; expanded drug list) | ALT change in words ([3]; Liver-Chip effluent) | ALT Donor 1 [3, 5] | Immunofluorescent findings, donor two (Supplementary Figure 3) [1] | IF imaging Donor 2 ([1]; expanded drug list) | ALT Donor 2 [3, 5]
C[C@H]1COc2c(N3CCN(C)CC3)c(F)cc3c(=O)c(C(=O)O)cn1c23 [Levofloxacin] | did not cause cellular apoptosis | No findings | No findings | No findings | No findings | No findings | no concentration-dependent change in cytokine levels; also recorded: did not detect any concentration-related change; also recorded: unable to see any concentration-dependent increase in cytokine production | 0 | >15 multiples of the unbound human Cmax | >45 multiples of the unbound human Cmax | >45 multiples of the unbound human Cmax | – | – | – | – | – | –
CC[C@H]1OC(=O)[C@H](C)C(=O)[C@H](C)[C@@H](O[C@@H]2O[C@H](C)C[C@H](N(C)C)[C@H]2O)[C@](C)(OC)C[C@@H](C)C(=O)[C@H](C)[C@H]2N(CCCCn3cnc(-c4cccnc4)c3)C(=O)O[C@]12C [Telithromycin] | apoptosis-mediated cell death | Apoptosis | – | – | – | – | – | – | – | – | – | Apoptosis | concomitant increase | 30 unbound human Cmax multiplier | – | – | –
Cc1ccc(C(=O)c2cc(O)c(O)c([N+](=O)[O-])c2)cc1 [Tolcapone] | – | Mitotoxicity | – | Mitotoxicity | Mitotoxicity | – | – | – | 100 multiples of the unbound human Cmax | 30 multiples of the unbound human Cmax | – | – | – | – | Mitotoxicity | – | –
Cc1c(C)c2c(c(C)c1O)CCC(C)(COc1ccc(CC3SC(=O)NC3=O)cc1)O2 (stereo not drawn) [Troglitazone] | – | Apoptosis | – | Apoptosis | Apoptosis | – | – | – | 300 multiples of the unbound human Cmax | 300 multiples of the unbound human Cmax | – | – | – | – | Apoptosis | – | –
N[C@@H]1[C@H]2CN(c3nc4c(cc3F)c(=O)c(C(=O)O)cn4-c3ccc(F)cc3F)C[C@@H]12 [Trovafloxacin] | concentration-dependent increases in caspase 3/7 staining | Apoptosis | Apoptosis | Apoptosis | Apoptosis | Apoptosis | no concentration-dependent change in cytokine levels; also recorded: did not detect any concentration-related change; also recorded: unable to see any concentration-dependent increase in cytokine production | – | 100 multiples of the unbound human Cmax | 100 multiples of the unbound human Cmax | 30 multiples of the unbound human Cmax | – | – | – | Apoptosis | – | –
CCOC(=O)CN[C@@H](C(=O)N1CC[C@H]1C(=O)NCc1ccc(/C(N)=N\O)cc1)C1CCCCC1 [Ximelagatran] | – | No findings | – | – | – | – | – | – | – | – | – | No findings | – | 30 unbound human Cmax multiplier | No findings | No findings | > 300 unbound human Cmax multiplier
CC(c1cc2ccccc2s1)N(O)C(N)=O (stereo not drawn) [Zileuton] | – | No findings | – | – | – | – | – | – | – | – | – | No findings | – | > 100 unbound human Cmax multiplier | No findings | No findings | > 300 unbound human Cmax multiplier
